Read-outs that look alike come from different tables or passages of the source.
How the values were obtained:
[1] = DPPH radical scavenging assay; format: biochemical; settings: for IC50: DPPH 0.05 mM in methanol, incubated 20 and 60 min, absorbance at 517 nm, mean ± s.d. of three measurements, read-out: IC50 for inactivation of DPPH free radical; for stoichiometric factor (SF): SF=[DPPH]/(2×IC50), good antioxidant if SF ≥ 2
Protocol: The antioxidant screening of all PheNAHs was performed using the 2,2-diphenyl-1-picrylhydrazyl (DPPH) method. The solution of DPPH radical in methanol (0.05 mM, 1 ml) was mixed with the tested compound (20 µl of different concentrations in dimethyl sulfoxide (DMSO) and 980 µl of methanol). The reaction mixture was incubated in the dark at room temperature for 20 and 60 min after which the absorbance of the sample was measured spectrophotometrically at 517 nm. All measurements were performed in triplicate. Methanol was used as a control solution, whereas quercetin and nordihydroguaiaretic acid (NDGA) were used as reference compounds. […] IC50 is defined as the minimal concentration of tested compound required for reaching 50% of a maximum scavenging capacity. The results were presented as mean values ± standard deviation (s.d.) of three independent measurements. The stoichiometric factor (SF) was calculated for all compounds using the equation [45, 46]:1 SF=[DPPH]/(2×IC50)

[2] = tested on: HCT-116; assay: MTT cytotoxicity assay on HCT-116 cells; format: cell-based, human; settings: for IC50: Homo sapiens, HCT-116 cell line, read-out: Growth inhibitory effects IC50; for selectivity index (SI): ratio of IC50 values of MRC-5 and HCT-116, values greater than 1 indicate selectivity toward cancer cell line; for cytotoxic effect in words (from IC50 values): MTT
Protocol: (§1) In this in vitro study, we investigated the influence of PheNAHs on two model systems: human colorectal carcinoma HCT-116 and human healthy fibroblast cell line MRC-5. Both cell lines of low passages were purchased from the European collection of authenticated cell cultures (ECACC) and were cultivated in Dulbecco's Modified Eagle Medium (DMEM) (Sigma, D5796) cell culture medium supplemented with 10% foetal bovine serum (Sigma, F4135-500 ML) and 1% penicillin/streptomycin (Sigma, P4333-100 ML) in 75 cm^2 culture flasks. The cells were maintained according to the standardized procedure in the incubator with humidified atmosphere supplemented with 5% CO2 at a physiological temperature of 37°C, and after a few passages and a confluence of about 80%, the cells were used in all in vitro experiments (Laboratory for Bioengineering protocol CB-003).
(§2) The ability of synthesized compounds to inhibit the growth of two different cell lines was estimated by a standardized 3-(4,5-dimethylthiazol-2-yl)-2,5-diphenyltetrazolium bromide (MTT) assay (Laboratory for Bioengineering protocol CB-005). The approximative number of 10 000 cells per well (in 96-well microplates) were seeded and kept in the incubator for 24 h to enable cell adhesion. After the incubation period, the cells were treated with investigated compounds in the concentration range from 0,1 to 500 µM dissolved in DMEM. Cytotoxic effect was evaluated 24 and 72 h from treatment by following the number of survived cells, thus the cell viability. MTT assay is based on spectrophotometric measurement of reduction rate of 3-(4,5-dimethylthiazol-2-yl)-2,5-diphenyltetrazolium bromide (MTT, Acros Organics, 158990010) to purple formazan crystals subsequently dissolved in DMSO (Fisher Chemical, D/4121/PB15) on a microplate reader (Rayto 2100C) at 550 nm. The percentage of the survived (viable) cells was estimated by dividing the absorbance of the treatment with the absorbance of the control (non-treated) cells and multiplied by 100 [47]. As positive controls, Leucovorin and Irinotecan were selected as compounds used in colon cancer treatment.
(§3) Biological activity was the result of two individual experiments, performed in triplicate for each dose. Statistical analyses were determined using the one-way analysis of variance (ANOVA) test for multiple comparisons, SPSS (Chicago, IL) statistical software package (SPSS for Windows, v. 17, 2008). The IC50 values were calculated from the dose curves by a computer program (CalcuSyn). IC50 values represent the half-maximal inhibitory concentration of tested compounds to measure the influence in inhibition of cell growth for 50%. […] At the beginning of the process of selecting the anti-cancer drug candidate, it is necessary to make a rough preselection between the tested substances. In vitro analysis on cancer and healthy cell lines is quantified in different ways, selectivity also. The selectivity index (SI) of tested drugs usually refers to the simple ratio of IC50 values determined for cancer and healthy cells. Also, the SI can be used for the expression of many other examples, such as SI between antibacterial and antiviral effect, discrimination of the drugs effect between many cancer cell lines, etc. In our experimentation, the values greater than ‘1’ indicate selectivity of the tested substance toward cancer cell line.

[3] = tested on: MRC-5; assay: MTT cytotoxicity assay on MRC-5 cells; format: cell-based; settings: Homo sapiens, MRC5, MRC-5 cell line, read-out: Growth inhibitory effects IC50
Protocol: as §1, §2, §3

Row | SMILES | IC50 [1] | IC50 ([2]; 24 h exposure) | IC50 ([2]; 72 h exposure) | IC50 ([3]; 24 h exposure) | IC50 ([3]; 72 h exposure) | selectivity index (SI) ([2]; after 24 h exposure) | selectivity index (SI) ([2]; after 72 h exposure) | stoichiometric factor (SF) [1] | cytotoxic effect in words (from IC50 values) ([2]; 72 h after treatment) | cytotoxic effect in words (from IC50 values) ([2]; 24 and 72 h exposure, 0,1 to 500 µM)
1 | O=C(N/N=C/c1ccccc1)c1ccccc1 [1a] | > 100 µM | > 500 µM | > 500 µM | > 500 µM | > 500 µM |  |  |  |  | 
2 | O=C(N/N=C/c1ccccc1O)c1ccccc1 [1b] | > 100 µM | 249 µM | 139 µM | > 500 µM | > 500 µM | >2.01 | >3.59 |  |  | 
3 | O=C(N/N=C/c1ccc(O)cc1)c1ccccc1 [1c] | > 100 µM | > 500 µM | > 500 µM | > 500 µM | > 500 µM |  |  |  |  | 
4 | COc1cccc(/C=N/NC(=O)c2ccccc2)c1O [1d] | > 100 µM | > 500 µM | 66.6 µM | > 500 µM | 306 µM |  | 4.6 |  |  | 
5 | COc1cc(/C=N/NC(=O)c2ccccc2)ccc1O [1e] | 31.4 ± 0.9 µM | > 500 µM | > 500 µM | > 500 µM | > 500 µM |  |  | 0.4 |  | 
6 | COc1cc(/C=N/NC(=O)c2ccccc2)cc(OC)c1O [1f] | 17.2 ± 1.1 µM | > 500 µM | > 500 µM | > 500 µM | > 500 µM |  |  | 0.7 |  | 
7 | O=C(N/N=C/c1ccc(O)cc1O)c1ccccc1 [1g] | > 100 µM | > 500 µM | 316 µM | > 500 µM | > 500 µM |  |  |  |  | 
8 | O=C(N/N=C/c1ccc(O)c(O)c1)c1ccccc1 [1h] | 2.93 ± 0.1 µM | > 500 µM | > 500 µM | > 500 µM | > 500 µM |  |  | 4.3 |  | 
9 | O=C(N/N=C/c1ccccc1)c1ccccc1O [2a] | > 100 µM | > 500 µM | > 500 µM | > 500 µM | > 500 µM |  |  |  |  | 
10 | O=C(N/N=C/c1ccccc1O)c1ccccc1O [2b] | > 100 µM | 26.9 µM | 70.5 µM | > 500 µM | 233 µM | >18.59 | 3.30 |  |  | 
11 | O=C(N/N=C/c1ccc(O)cc1)c1ccccc1O [2c] | > 100 µM | > 500 µM | > 500 µM | > 500 µM | > 500 µM |  |  |  |  | 
12 | COc1cccc(/C=N/NC(=O)c2ccccc2O)c1O [2d] | > 100 µM | 80.5 µM | 26.2 µM | 37.9 µM | 87.3 µM |  | 3.3 |  |  | 
13 | COc1cc(/C=N/NC(=O)c2ccccc2O)ccc1O [2e] | 20.1 ± 0.9 µM | > 500 µM | > 500 µM | > 500 µM | > 500 µM |  |  | 0.6 |  | 
14 | COc1cc(/C=N/NC(=O)c2ccccc2O)cc(OC)c1O [2f] | 6.5 ± 0.4 µM | > 500 µM | > 500 µM | > 500 µM | > 500 µM |  |  | 1.9 |  | 
15 | O=C(N/N=C/c1ccc(O)cc1O)c1ccccc1O [2g] | > 100 µM | > 500 µM | 61.2 µM | > 500 µM | > 500 µM |  |  |  |  | 
16 | O=C(N/N=C/c1ccc(O)c(O)c1)c1ccccc1O [2h] | 1.6 µM | > 500 µM | 208 µM | > 500 µM | > 500 µM |  |  | 7.8 |  | 

Row | SMILES | IC50 [1] | IC50 ([2]; 24 h exposure) | IC50 ([2]; 72 h exposure) | IC50 ([3]; 24 h exposure) | IC50 ([3]; 72 h exposure) | selectivity index (SI) ([2]; after 24 h exposure) | selectivity index (SI) ([2]; after 72 h exposure) | stoichiometric factor (SF) [1] | cytotoxic effect in words (from IC50 values) ([2]; 72 h after treatment) | cytotoxic effect in words (from IC50 values) ([2]; 24 and 72 h exposure, 0,1 to 500 µM)
17 | O=C(N/N=C/c1ccccc1)c1ccc(O)cc1 [3a] | > 100 µM | > 500 µM | > 500 µM | > 500 µM | > 500 µM |  |  |  |  | 
18 | O=C(N/N=C/c1ccccc1O)c1ccc(O)cc1 [3b] | > 100 µM | > 500 µM | 101 µM | > 500 µM | > 500 µM |  | >4.94 |  |  | 
19 | O=C(N/N=C/c1ccc(O)cc1)c1ccc(O)cc1 [3c] | > 100 µM | > 500 µM | > 500 µM | > 500 µM | > 500 µM |  |  |  |  | 
20 | COc1cccc(/C=N/NC(=O)c2ccc(O)cc2)c1O [3d] | > 100 µM | > 500 µM | 94.1 µM | > 500 µM | 213 µM |  | 2.3 |  |  | 
21 | COc1cc(/C=N/NC(=O)c2ccc(O)cc2)ccc1O [3e] | 28.4 ± 0.2 µM | > 500 µM | > 500 µM | > 500 µM | > 500 µM |  |  | 0.4 |  | 
22 | COc1cc(/C=N/NC(=O)c2ccc(O)cc2)cc(OC)c1O [3f] | 16.6 ± 0.2 µM | > 500 µM | > 500 µM | > 500 µM | > 500 µM |  |  | 0.8 |  | 
23 | O=C(N/N=C/c1ccc(O)cc1O)c1ccc(O)cc1 [3g] | > 100 µM | > 500 µM | 130 µM | > 500 µM | 440 µM |  |  |  |  | 
24 | O=C(N/N=C/c1ccc(O)c(O)c1)c1ccc(O)cc1 [3h] | 2.5 ± 0.1 µM | > 500 µM | 107 µM | > 500 µM | > 500 µM |  |  | 5 |  | 
25 | COc1cc(C(=O)N/N=C/c2ccccc2)ccc1O [4a] | > 100 µM | > 500 µM | > 500 µM | > 500 µM | > 500 µM |  |  |  |  | 
26 | COc1cc(C(=O)N/N=C/c2ccccc2O)ccc1O [4b] | > 100 µM | 250 µM | 91.4 µM | > 500 µM | 290 µM | >2.00 | 3.17 |  |  | 
27 | COc1cc(C(=O)N/N=C/c2ccc(O)cc2)ccc1O [4c] | > 100 µM | > 500 µM | > 500 µM | > 500 µM | > 500 µM |  |  |  |  | 
28 | COc1cc(C(=O)N/N=C/c2cccc(OC)c2O)ccc1O [4d] | > 100 µM | > 500 µM | 202 µM | > 500 µM | 128 µM |  |  |  |  | 
29 | CC(Cc1ccc(O)c(O)c1)C(C)Cc1ccc(O)c(O)c1 (stereo not shown) [NDGA, nordihydroguaiaretic acid, reference compound] | 1.7 ± 0.1 µM |  |  |  |  |  |  | 7.4 |  | 
30 | O=c1c(O)c(-c2ccc(O)c(O)c2)oc2cc(O)cc(O)c12 [Quercetin, quercetin, reference compound] | 1.9 ± 0.1 µM |  |  |  |  |  |  | 6.6 |  | 
31 | CCc1c2c(nc3ccc(OC(=O)N4CCC(N5CCCCC5)CC4)cc13)-c1cc3c(c(=O)n1C2)COC(=O)[C@]3(O)CC [irinotecan, Irinotecan, reference compound] |  | > 500 µM | 101 µM | > 500 µM | 35.2 µM |  | 0.35 |  | moderate | 
32 | Nc1nc2c(c(=O)[nH]1)N(C=O)C(CNc1ccc(C(=O)N[C@@H](CCC(=O)O)C(=O)O)cc1)CN2 (stereo partly shown) [leucovorin, Leucovorin, reference compound] |  | > 500 µM | > 500 µM | > 500 µM | 180 µM |  | <0.36 |  |  | no effect
